Results reported in PMC9076611, “Ataluren binds to multiple protein synthesis apparatus sites and competitively inhibits release factor-dependent termination” (Nature Communications, 2022).

Key:
eRF1 [1] = biological target: T1, eRF1 (Saccharomyces cerevisiae, UniProt P12385); assay: photoaffinity labeling with [3H]-AzAt, saturation curve on isolated eRF1 (SDS-PAGE gel slice radioactivity); type: binding
T1 construct: gene SUP45; Full-length S. cerevisiae eRF1
Source text: photoaffinity labeling with [3H]-AzAt, saturation curve on isolated eRF1 (SDS-PAGE gel slice radioactivity) on eRF1 | Photoincorporation into isolated eRF1 as a function of AzAt concentration results in a simple hyperbolic saturation curve

eRF1 [2] = biological target: T1, eRF1; assay: competition with [3H]-AzAt photoaffinity labeling of isolated eRF1 ([…] ataluren vs […] AzAt); type: binding

T1 sequence (P12385 whole entry): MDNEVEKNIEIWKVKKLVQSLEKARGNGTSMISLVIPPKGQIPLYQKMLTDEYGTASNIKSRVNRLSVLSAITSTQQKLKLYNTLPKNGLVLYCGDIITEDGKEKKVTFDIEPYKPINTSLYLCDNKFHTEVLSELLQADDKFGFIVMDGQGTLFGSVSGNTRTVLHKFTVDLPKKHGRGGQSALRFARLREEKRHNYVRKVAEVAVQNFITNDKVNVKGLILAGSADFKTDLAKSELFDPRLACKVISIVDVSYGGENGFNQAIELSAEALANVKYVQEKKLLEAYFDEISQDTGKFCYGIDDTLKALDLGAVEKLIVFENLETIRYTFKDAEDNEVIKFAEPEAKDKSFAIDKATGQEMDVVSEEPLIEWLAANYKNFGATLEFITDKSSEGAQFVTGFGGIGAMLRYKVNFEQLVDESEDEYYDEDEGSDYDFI

EC50 (eRF1 [1])	SMILES	competition with [3H]-AzAt photoaffinity labeling of isolated eRF1 (1000 μM atal) (eRF1 [2])
110 ± 20 µM	[N-]=[N+]=Nc1ccc(-c2nc(-c3cccc(C(=O)O)c3)no2)cc1 [AzAt, 3-(5-(4-azidophenyl)-1,2,4-oxadiazol-3-yl) benzoic acid]	–
–	O=C(O)c1cccc(-c2noc(-c3ccccc3F)n2)c1 [ataluren]	both ataluren and GJ072, an ataluren-like TRID, substantially inhibit AzAt photoincorporation into isolated eRF1
